Laboratory results: the CheMixHub viscosity set

Assay: xn = mol fraction of the nth substance listed

C=Cc1ccccc1 + ClC(Cl)Cl
viscosity [mPa·s], 101.33 kPa
Conditions	x1 = 0.101	x1 = 0.2004	x1 = 0.3009	x1 = 0.4022	x1 = 0.5055	x1 = 0.5997	x1 = 0.705	x1 = 0.7962	x1 = 0.9
298.15 K	0.5838	0.6109	0.6357	0.6615	0.6849	0.7054	0.7267	0.7443	0.7286
303.15 K	0.5575	0.5816	0.6033	0.628	0.6463	0.6686	0.6832	0.6993	0.6841
308.15 K	0.5324	0.5513	0.5742	0.5915	0.6109	0.6272	0.6447	0.6581	0.6521

BrC(Br)Br + CCOC(C)=O
viscosity [mPa·s]
Conditions	x1 = 0.2695	x1 = 0.2713	x1 = 0.5228	x1 = 0.529	x1 = 0.7671	x1 = 0.7683
298 K, 101.3 kPa	–	0.754	–	1.141	–	1.565
318 K, 101.33 kPa	0.6005	–	0.8779	–	1.179	–

C=Cc1ccccc1 + CC(=O)N(C)C
viscosity [mPa·s], 101.33 kPa
Conditions	x1 = 0.109	x1 = 0.1994	x1 = 0.2958	x1 = 0.4002	x1 = 0.5004	x1 = 0.6012	x1 = 0.7027	x1 = 0.8005	x1 = 0.9015
298.15 K	0.938	0.936	0.937	0.929	0.921	0.903	0.881	0.851	0.808
303.15 K	0.874	0.873	0.872	0.863	0.857	0.841	0.821	0.795	0.753
308.15 K	0.817	0.818	0.815	0.807	0.8	0.785	0.766	0.742	0.7

BrC(Br)Br + N#Cc1ccccc1
298.15 K, 101 kPa
Conditions	viscosity [mPa·s]
x1 = 0.1782	1.372
x1 = 0.3333	1.548
x1 = 0.4937	1.727
x1 = 0.6066	1.861
x1 = 0.7005	1.88
x1 = 0.8886	1.893

BrC(Br)Br + OCCCl
viscosity [mPa·s], 101.3 kPa
Conditions	x1 = 0.099	x1 = 0.198	x1 = 0.301	x1 = 0.396	x1 = 0.498	x1 = 0.595	x1 = 0.702	x1 = 0.801	x1 = 0.896
298.15 K	2.878	2.817	2.587	2.446	2.3	2.179	2.067	1.97	1.915
303.15 K	2.532	2.487	2.297	2.191	2.08	1.982	1.89	1.825	1.779
308.15 K	2.237	2.21	2.055	1.974	1.884	1.814	1.746	1.694	1.666

CC(C)(C)N + NC1CCCCC1
298.15 K, 101 kPa
Conditions	viscosity [mPa·s]
x2 = 0.0757	0.569
x2 = 0.1557	0.7445
x2 = 0.2401	0.9554
x2 = 0.3296	1.173
x2 = 0.4244	1.407
x2 = 0.5252	1.612
x2 = 0.6324	1.785
x2 = 0.7468	1.894
x2 = 0.8691	1.915
